Measurements reported in patent publication US11096923B2, “Pharmaceutical composition containing polymyxin B/trimethoprim based therapeutics” (University of Rochester, priority 2016, dated 2021).

Assays:
[1] = system: planktonic P. aeruginosa cells; assay: Antimicrobial kill curves; format: cell-based, Pseudomonas aeruginosa; conditions: 2× MIC, 4 hours post-treatment
Method: Overnight cultures of the indicated organism were used to inoculate (1:100 dilution) 100 ml of fresh media and grown to mid-exponential phase. […] Aliquots were taken at 1, 2, 3, 4, and 24 hours, serial diluted and plated for colony forming units.

[2] = system: P. aeruginosa strain PA01 biofilms; assay: Biofilm susceptibility; format: cell-based, Pseudomonas aeruginosa; conditions: established PA01 biofilm, 24 hrs treatment, 32×MIC
Excerpt: (§1) Bacterial strains used in these studies include the conventional laboratory strains Pseudomonas aeruginosa PA01 and Staphylococcus aureus UAMS-1, both of which are antibiotic susceptible and capable of forming robust biofilms. See […], Thomas J R, Nelson […]. Role of the accessory gene regulator (agr) in pathogenesis of staphylococcal osteomyelitis. Infection and immunity 1995; 63:3373-3380. Seven clinical keratitis isolates of Pseudomonas aeruginosa, were collected from the Flaum Eye Institute, Rochester N.Y. and 25 clinical isolates of Staphylococcus aureus from geographically distinct regions of the country where purchased from International Health Management Associates (IHMA; Schaumburg, Ill.). […] After 24 hrs the remaining media and non-adherent cells were removed, biofilms were suspended in 0.8% NaCl and plated to quantify surviving bacteria. […] Biofilms were treated in increasing increments ranging from 0 to 64×MIC.

S. aureus = assay: Fractional inhibitory concentration, checkerboard MIC; format: cell-based, Staphylococcus aureus; conditions: for MIC in combination: PT combined with rifampicin; for MIC: Staphylococcus aureus
[3] = system: S. aureus UAMS-1 biofilms; assay: Biofilm susceptibility; format: cell-based, Staphylococcus aureus; conditions: established S. aureus biofilm, 24 hrs treatment, 32×MIC
Excerpt: as §1, with “Ill.). For experiments requiring planktonic cultures, the indicated organism was grown overnight in Luria-Bertani broth (LB; […] Biofilms were established by inoculating individual wells of flat-bottom polystyrene plates (Falcon, Corning Life Sciences; Durham, N.C.) with overnight cultures of the indicated organism into 200 ul of fresh LB to a final concentration of 1×10^7 CFU ml^-1. Plates were placed in a 37° C.-humidified incubator for 72 hours to allow static biofilm formation. Non-adherent cells were aspirated and biofilms were washed twice with phosphate-buffered saline prior to each experiment.” for “Ill.).”

P. aeruginosa PAO1 = assay: Selleck library screen in presence of sub-inhibitory polymyxin B/trimethoprim; format: cell-based, Pseudomonas aeruginosa; parameters: key: Growth (+); no growth (−)
Method: To identify agents that potentiate the antimicrobial activity of polymyxin B/trimethoprim we first determined the highest concentration of the polymyxin B/trimethoprim combination that allowed growth of P. aeruginosa strain PAO1 and S. aureus strain UAMS-1.
For Selleck library screening, individual wells of 96-well microtiter plates containing 88 μl of fresh media were inoculated with approximately 10^5 CFUs of P. aeruginosa strain PAO1 or S. aureus UAMS-1. Next, 2 μl of polymyxin B/trimethoprim was added to a final concentration of 0.2 μg ml^−1 or 1.25 μg ml^−1 for PA01 and UAMS-1, respectively. Library members were then added at either 5 μM or 50 μM final concentration. Plates were incubated at 37° C. for 16 hours and hits were identified as wells with no visible growth. […]

P. aeruginosa = assay: Fractional inhibitory concentration, checkerboard MIC; format: cell-based, Pseudomonas aeruginosa; conditions: for MIC in combination: PT combined with rifampicin; for MIC: Pseudomonas aeruginosa

SMILES: CO[C@H]1/C=C/O[C@@]2(C)Oc3c(C)c(O)c4c(O)c(c(/C=N/N5CCN(C)CC5)c(O)c4c3C2=O)NC(=O)/C(C)=C\C=C\[C@H](C)[C@H](O)[C@@H](C)[C@@H](O)[C@@H](C)[C@H](OC(C)=O)[C@@H]1C [Rifampicin, rifampicin]
- reduction in CFU at hour 4 [1]: 6 log
- reduction in biofilm-associated CFU [2]: 5 log
- MIC in combination (S. aureus; S. aureus 1071788): 0.0015 µg/mL
- MIC in combination (S. aureus; S. aureus 1094094): 0.0015 µg/mL
- MIC in combination (S. aureus; S. aureus 1094140): 0.0015 µg/mL
- MIC in combination (S. aureus; S. aureus 1094147): 0.0015 µg/mL
- MIC in combination (S. aureus; S. aureus 1094166): 0.0015 µg/mL
- MIC in combination (S. aureus; S. aureus 1094178): 0.0076 µg/mL
- MIC in combination (S. aureus; S. aureus 1097612): 0.0035 µg/mL
- MIC in combination (S. aureus; S. aureus 1097630): 0.0015 µg/mL
- MIC in combination (S. aureus; S. aureus 1101442): 0.0035 µg/mL
- MIC in combination (S. aureus; S. aureus 1103430): 0.0015 µg/mL
- MIC in combination (S. aureus; S. aureus 1110936): 0.0035 µg/mL
- MIC in combination (S. aureus; S. aureus 1111063): 0.0076 µg/mL
- MIC in combination (S. aureus; S. aureus 1122181): 0.0015 µg/mL
- MIC in combination (S. aureus; S. aureus 1122187): 0.0035 µg/mL
- MIC in combination (S. aureus; S. aureus 1122190): 0.0035 µg/mL
- MIC in combination (S. aureus; S. aureus 1122197): 0.0015 µg/mL
- MIC in combination (S. aureus; S. aureus 1125120): 0.0076 µg/mL
- MIC in combination (S. aureus; S. aureus 1132822): 0.0015 µg/mL
- MIC in combination (S. aureus; S. aureus 1142776): 0.0015 µg/mL
- MIC in combination (S. aureus; S. aureus 1144105): 0.0035 µg/mL
- MIC in combination (S. aureus; S. aureus UAMS-1): 0.0015 µg/mL
- MIC (S. aureus; S. aureus 1071788): 0.01 µg/mL
- MIC (S. aureus; S. aureus 1094094): 0.01 µg/mL
- MIC (S. aureus; S. aureus 1094140): 0.01 µg/mL
- MIC (S. aureus; S. aureus 1094147): 0.01 µg/mL
- MIC (S. aureus; S. aureus 1094166): 0.01 µg/mL
- MIC (S. aureus; S. aureus 1094178): 0.1 µg/mL
- MIC (S. aureus; S. aureus 1097612): 0.05 µg/mL
- MIC (S. aureus; S. aureus 1097630): 0.01 µg/mL
- MIC (S. aureus; S. aureus 1101442): 0.05 µg/mL
- MIC (S. aureus; S. aureus 1103430): 0.01 µg/mL
- MIC (S. aureus; S. aureus 1110936): 0.05 µg/mL
- MIC (S. aureus; S. aureus 1111063): 0.1 µg/mL
- MIC (S. aureus; S. aureus 1122181): 0.01 µg/mL
- MIC (S. aureus; S. aureus 1122187): 0.05 µg/mL
- MIC (S. aureus; S. aureus 1122190): 0.05 µg/mL
- MIC (S. aureus; S. aureus 1122197): 0.01 µg/mL
- MIC (S. aureus; S. aureus 1125120): 0.05 µg/mL
- MIC (S. aureus; S. aureus 1132822): 0.01 µg/mL
- MIC (S. aureus; S. aureus 1142776): 0.01 µg/mL
- MIC (S. aureus; S. aureus 1144105): 0.05 µg/mL
- MIC (S. aureus; S. aureus UAMS-1): 0.01 µg/mL
- reduction in biofilm-associated CFU [3]: 4 log
- P. aeruginosa growth, 5 μM (P. aeruginosa PAO1; drug 5 μM in presence of 0.2 μg ml^−1 polymyxin B/trimethoprim): −
- P. aeruginosa growth, 50 μM (P. aeruginosa PAO1; drug 50 μM in presence of 0.2 μg ml^−1 polymyxin B/trimethoprim): −
- MIC in combination (P. aeruginosa; P. aeruginosa PAO1): 1.9 µg/mL
- MIC in combination (P. aeruginosa; P. aeruginosa RW01): 1.9 µg/mL
- MIC in combination (P. aeruginosa; P. aeruginosa RW02): 1.9 µg/mL
- MIC in combination (P. aeruginosa; P. aeruginosa RW03): 3.9 µg/mL
- MIC in combination (P. aeruginosa; P. aeruginosa RW04): 1.9 µg/mL
- MIC in combination (P. aeruginosa; P. aeruginosa RW05): 1.9 µg/mL
- MIC in combination (P. aeruginosa; P. aeruginosa RW06): 1.9 µg/mL
- MIC in combination (P. aeruginosa; P. aeruginosa RW07): 1.9 µg/mL
- MIC (P. aeruginosa; P. aeruginosa RW01): 15.6 µg/mL
- MIC (P. aeruginosa; P. aeruginosa RW02): 15.6 µg/mL
- MIC (P. aeruginosa; P. aeruginosa RW03): 15.6 µg/mL
- MIC (P. aeruginosa; P. aeruginosa RW04): 15.6 µg/mL
- MIC (P. aeruginosa; P. aeruginosa RW05): 31.2 µg/mL
- MIC (P. aeruginosa; P. aeruginosa RW06): 15.6 µg/mL
- MIC (P. aeruginosa; P. aeruginosa RW07): 15.6 µg/mL
- MIC (P. aeruginosa; PAO1, P. aeruginosa PAO1): 15.6 µg/mL
